In brackets after ≈: the same amount, converted by molar mass. Read-outs that look alike come from different tables or passages of the source.
Legend:
[1] = test system: WRL-68 liver cancer cells; test: Soft agar assay for colony formation (clonogenic assay); conditions: for IC90: Homo sapiens, WRL68, read-out: Cytotoxic properties (IC 90) WRL-68
Method: (§1) As a part of the studies on the isolation of anticancer compounds a number of taxanes were isolated from the needles of the plant Taxus wallichiana and tested for their anti-cancer properties against six human cancer cell lines in-vitro. The bioactivity testing was done at two stages. In the initial step, MTT assay was performed from which the inhibitory concentration (IC90) the concentration (μg/mL) of the taxanes required for 90% inhibition of cell growth was deduced. […] The MTT assay cannot discriminate between growth inhibition and cell death; it is an overall measurement of cell proliferation (Woerdenbag et al., 1993; J.Nat.Prod. 56 (6): 849–856). Therefore the IC90 data obtained by the MTT assay may overestimate the cell killing activity of a compound. […] Persons skilled in the art of anti-cancer drug discovery can perform both these assays.
(§2) The clonogenic assay for tumor cells which determines the actual cell death was performed to determine the cytotoxic potential of test compounds. The principle of clonogenic assay is to investigate the ability of an individual cell to form a colony on a soft agar plate containing various concentrations of test compounds.
(§3) Cells not able to form colonies are considered clonogenically dead (Beekman et al 1997; J.Nat.Prod. 60(4): 325–330). The concentration of test compound resulting in […] was denoted as IC90 and was used as a parameter for cytotoxicity. The assay was performed as described previously except that the test compounds were added into the top soft agar and the cells were plated out to form colonies. Anthracycline derivative doxorubicin and microtubule depolymerization inhibitor paclitaxel (Sigma Chem. Co., St. Loius, USA) both established anticancer agents were included as standard reference drugs.

[2] = test system: COLO-320DM colon cancer cells; test: In-vitro anticancer MTT assay; assay type: cell-based, human; conditions: 6 h exposure, then 48 h in fresh media, 90% inhibition of cell growth; for IC90: Homo sapiens, COLO 320DM, read-out: Cytotoxic properties (IC 90) COLO-320 DM
Excerpt: (§4) The bioactivity testing was done at two stages.

[3] = test system: PA-1 ovary cancer cells; test: In-vitro anticancer MTT assay; assay type: cell-based, human; conditions: for Cytotoxic properties (IC 90) PA-1 / IC90: MTT assay, 6 h exposure, then 48 h in fresh media, 90% inhibition of cell growth; for IC90: Homo sapiens, read-out: Cytotoxic properties (IC 90) PA-1
Excerpt: as §4

[4] = test system: Caco-2 colon cancer cells; test: In-vitro anticancer MTT assay; assay type: cell-based, human; conditions: for IC90: Homo sapiens
Excerpt: as §4

[5] = test system: WRL-68 liver cancer cells; test: In-vitro anticancer MTT assay; conditions: for IC90: Homo sapiens, WRL68, read-out: Cytotoxic properties (IC 90) WRL-68
Method: as §1
(§5) The following six human cancer lines were procured from the Cell Repository of the National Center for Cell Sciences (NCSS) at Pune. Their corresponding ATCC No. and the organ from which they were isolated are also mentioned in Table 1 below:
(§6) Cytotoxicity testing in vitro was done by the method of Woerdenbag et al.,1993; J.Nat.Prod. 56 (6): 849–856). 2×10^3 cells/well were incubated in the 5% CO2 incubator for 24 h to enable them to adhere properly to the 96 well polysterene microplate (Grenier, Germany). Test compounds dissolved in 100% DMSO (Merck,Germany) in at least five doses were added and left for 6 h after which the compound plus media was replaced with fresh media and the cells were incubated for another 48 h in the CO2 incubator at 37° C. […] Then, 10 μl MTT [3-(4,5-dimethylthiazol-2-yl)-2,5-diphenyltetrazolium bromide; Sigma M 2128] was added, and plates were incubated at 37° C. for 4 h. 100 μl dimethyl sulfoxide (DMSO, Merck, Germany) were added to all wells and mixed thoroughly to dissolve the dark blue crystals. After a few minutes at room temperature to ensure that all crystals were dissolved, the plates were read on a SpectraMax 190 Microplate Elisa reader (Molecular Devices Inc., USA), at 570 nm. Plates were normally read within 1 h of adding the DMSO. The experiment was done in triplicate and the inhibitory concentration (IC) values were calculated as follows: % inhibition=[1-OD (570 nm) of sample well/OD (570 nm) of control well]×100. IC90 is the concentration μg/mL required for 90% inhibition of cell growth as compared to that of untreated control.

[6] = test system: PA-1 ovary cancer cells; test: Soft agar assay for colony formation (clonogenic assay); assay type: cell-based, human; conditions: colony formation on soft agar, compound in top soft agar; for IC90: Homo sapiens, read-out: Cytotoxic properties (IC 90) PA-1
Excerpt: as §4

[7] = test system: Caco-2 colon cancer cells; test: as above; assay type: cell-based, human; conditions: compound in top soft agar; for Cytotoxic properties (IC 90) Caco-2: colony formation on soft agar; for IC90: Homo sapiens, Caco-2, colony formation on soft agar, read-out: Cytotoxic properties (IC 90) Caco-2
Excerpt: as §4

[8] = test system: KB-403 mouth cancer cells
Method: as §1, §2, §3

[9] = test system: KB-403 mouth cancer cells; remark: listed apart in the source
Method: as §1, §5, §6

[10] = test system: MCF-7 breast cancer cells; test: In-vitro anticancer MTT assay; assay type: cell-based, human; conditions: for IC90: Homo sapiens, MCF7, read-out: Cytotoxic properties (IC 90) MCF-7
Excerpt: as §4

[11] = test system: COLO-320DM colon cancer cells; test: Soft agar assay for colony formation (clonogenic assay); assay type: cell-based, human; conditions: colony formation on soft agar, compound in top soft agar; for IC90: Homo sapiens, COLO 320DM, read-out: Cytotoxic properties (IC 90) COLO-320 DM
Excerpt: as §4

[12] = test system: MCF-7 breast cancer cells; test: as above; assay type: cell-based, human; conditions: compound in top soft agar; for IC90: Homo sapiens, MCF7, colony formation on soft agar, read-out: Cytotoxic properties (IC 90) MCF-7; for Cytotoxic properties (IC 90) MCF-7: colony formation on soft agar
Excerpt: as §4

[13] = clonogenic assay, colony formation on soft agar, compound in top soft agar
[14] = MTT assay, 6 h exposure, then 48 h in fresh media, 90% inhibition of cell growth
[15] = Caco-2, MTT assay, 6 h exposure, then 48 h in fresh media, 90% inhibition of cell growth, read-out: Cytotoxic properties (IC 90) Caco-2

Row | Compound | Cytotoxic properties (IC 90) Caco-2 [4, 14] | Cytotoxic properties (IC 90) Caco-2 [7] | Cytotoxic properties (IC 90) KB-403 [8, 13] | Cytotoxic properties (IC 90) KB-403 [9, 14] | IC90 [1] | IC90 [2] | IC90 [3] | IC90 [10, 14] | IC90 [5] | IC90 [11] | IC90 [6] | IC90 [12] | IC90 [7] | Cytotoxic properties (IC 90) KB-403 [9] | also measured
1 | C=C1[C@H]2C[C@@H]3C[C@H](OC(C)=O)C(C)=C([C@@H](OC(C)=O)[C@H](OC(C)=O)[C@]2(C)[C@@H](OC(C)=O)C[C@@H]1O)C3(C)C [2-deacetoxy decinnamoyl taxinine J] | 6.4 µg/mL | 31.82 µg/mL | 0.11 µg/mL | 0.01 µg/mL | – | – | – | – | – | – | – | – | – | – | Cytotoxic properties (IC 90) WRL-68 [1, 13]: 12.58 µg/mL; Cytotoxic properties (IC 90) COLO-320 DM [2]: >10.0 µg/mL; Cytotoxic properties (IC 90) PA-1 [3]: 10.0 µg/mL; Cytotoxic properties (IC 90) WRL-68 [5, 14]: 0.5 µg/mL; Cytotoxic properties (IC 90) PA-1 [6]: 15.84 µg/mL
2 | COc1cccc2c1C(=O)c1c(O)c3c(c(O)c1C2=O)C[C@@](O)(C(=O)CO)C[C@@H]3O[C@H]1C[C@H](N)[C@H](O)[C@H](C)O1 [Doxorubicin (Std), doxorubicin, reference compound] | – | – | – | – | 3.98 µg/mL (≈ 7.32 µM) | 0.08 µg/mL (≈ 0.147 µM) | 0.5 µg/mL (≈ 0.92 µM) | 0.01 µg/mL (≈ 0.0184 µM) | 1 µg/mL (≈ 1.84 µM) | 0.1 µg/mL (≈ 0.184 µM) | 10 µg/mL (≈ 18.4 µM) | 0.8 µg/mL (≈ 1.47 µM) | 0.079 µg/mL (≈ 0.145 µM) | 0.06 µg/mL | IC90 [4, 15]: 0.052 µg/mL (≈ 0.0957 µM)
3 | CC(=O)O[C@H]1C(=O)[C@@]2(C)[C@H]([C@H](OC(=O)c3ccccc3)[C@]3(O)C[C@H](OC(=O)[C@H](O)[C@@H](NC(=O)c4ccccc4)c4ccccc4)C(C)=C1C3(C)C)[C@]1(OC(C)=O)CO[C@@H]1C[C@@H]2O [Taxol (Std), taxol, reference compound] | – | – | – | – | 6.3 µg/mL (≈ 7.38 µM) | 0.01 µg/mL (≈ 0.0117 µM) | 0.9 µg/mL (≈ 1.05 µM) | 0.85 µg/mL (≈ 0.995 µM) | 2.5 µg/mL (≈ 2.93 µM) | 0.8 µg/mL (≈ 0.937 µM) | 1.47 µg/mL (≈ 1.72 µM) | 1.99 µg/mL (≈ 2.33 µM) | 1.99 µg/mL (≈ 2.33 µM) | 0.047 µg/mL | IC90 [4, 15]: 0.065 µg/mL (≈ 0.0761 µM); Cytotoxic properties (IC 90) KB-403 [8]: 7.94 µg/mL
4 | C=C1[C@@H](OC(=O)/C=C/c2ccccc2)C[C@H](OC(C)=O)[C@]2(C)[C@@H]1C[C@@H]1C[C@H](OC(C)=O)C(C)=C([C@@H](OC(C)=O)[C@@H]2OC(C)=O)C1(C)C [2-deacetoxy taxinine J] | 0.009 µg/mL | 0.25 µg/mL | 28.18 µg/mL | 3.5 µg/mL | – | – | – | – | – | – | – | – | – | – | Cytotoxic properties (IC 90) COLO-320 DM [2]: 1.0 µg/mL; Cytotoxic properties (IC 90) MCF-7 [10, 14]: 6.5 µg/mL; Cytotoxic properties (IC 90) COLO-320 DM [11]: 10.0 µg/mL; Cytotoxic properties (IC 90) MCF-7 [12]: 7.94 µg/mL
5 | CC(=O)O[C@H]1C[C@H]2OC[C@@]2(OC(C)=O)[C@H]2[C@H](OC(C)=O)[C@]3(C(C)(C)O)C[C@H](O)C(C)=C3[C@@H](O)[C@H](OC(C)=O)[C@]12C [10,13,deacetyl abeobaccatin IV] | – | – | – | >10.0 µg/mL | – | – | – | – | – | – | – | – | – | – | Cytotoxic properties (IC 90) MCF-7 [10]: >10.0 µg/mL
6 | C=C1C2C[C@]3(C(C)(C)O)CC(O)C(C)=C3[C@@H](OC(=O)c3ccccc3)[C@H](OC(C)=O)[C@]2(C)[C@@H](OC(C)=O)C[C@@H]1O (some centres unmarked) [Brevifoliol, brevifoliol] | – | – | 0.398 µg/mL | 0.035 µg/mL | 15.8 µg/mL (≈ 28.5 µM) | 0.1 µg/mL (≈ 0.18 µM) | 6 µg/mL (≈ 10.8 µM) | 0.004 µg/mL (≈ 0.00719 µM) | > 10 µg/mL | 1 µg/mL (≈ 1.8 µM) | 7.94 µg/mL (≈ 14.3 µM) | 1.99 µg/mL (≈ 3.57 µM) | 0.31 µg/mL (≈ 0.557 µM) | – | activity against PA-1 cancer cells, in words ([3]; summary of the bioassay data): highly inhibitory; activity against MCF-7 cancer cells, in words ([10]; summary of the bioassay data): highly inhibitory; IC90 ([4]; Caco-2, read-out: Cytotoxic properties (IC 90) Caco-2): 0.85 µg/mL (≈ 1.53 µM); activity against Caco-2 cancer cells, in words ([4]; summary of the bioassay data): highly inhibitory; activity against WRL-68 liver cancer cells, in words ([5]; summary of Table 2): active against all cancer cell lines except liver cancer (WRL-68); activity against KB-403 cancer cells, in words ([9]; summary of the bioassay data): highly inhibitory
7 | 2′-Deacetoxy austrospicatin | 1.0 µg/mL | 3.16 µg/mL | 0.44 µg/mL | 4.5 µg/mL | – | – | – | – | – | – | – | – | – | – | Cytotoxic properties (IC 90) PA-1 [3]: 4.0 µg/mL; Cytotoxic properties (IC 90) MCF-7 [10, 14]: 3.5 µg/mL; Cytotoxic properties (IC 90) PA-1 [6]: 6.3 µg/mL; Cytotoxic properties (IC 90) MCF-7 [12]: 5.63 µg/mL
8 | Acetoxy brevifoliol | – | – | – | – | – | – | – | – | – | – | – | – | – | 10.0 µg/mL | Cytotoxic properties (IC 90) WRL-68 [1]: 7.0 µg/mL; Cytotoxic properties (IC 90) WRL-68 [5]: 5.0 µg/mL; Cytotoxic properties (IC 90) KB-403 [8]: 1.0 µg/mL
